Results published in patent publication US8524465B2, “Agonists of bitter taste receptors and uses thereof” (Deutsches Institut fuer Ernaehrungsforschung …, priority 2007, dated 2013).

Tests used:
TAS2R14 = biological target: T1, TAS2R14 (Homo sapiens, UniProt Q9NYV8); test: FLIPR calcium imaging, HEK-293T Gα16gust44 cells expressing TAS2R14; assay type: cell-based; conditions: for molar range at which TAS2R14 responded to the bitter substance: calcium response, transfected HEK-293T Gα16gust44 cells, FLIPR
T1 construct: expressed in transfected cells; host or cells: HEK-293T cells stably expressing the chimeric G-protein subunit Gα16gust44
T1 sequence (Q9NYV8 1-317): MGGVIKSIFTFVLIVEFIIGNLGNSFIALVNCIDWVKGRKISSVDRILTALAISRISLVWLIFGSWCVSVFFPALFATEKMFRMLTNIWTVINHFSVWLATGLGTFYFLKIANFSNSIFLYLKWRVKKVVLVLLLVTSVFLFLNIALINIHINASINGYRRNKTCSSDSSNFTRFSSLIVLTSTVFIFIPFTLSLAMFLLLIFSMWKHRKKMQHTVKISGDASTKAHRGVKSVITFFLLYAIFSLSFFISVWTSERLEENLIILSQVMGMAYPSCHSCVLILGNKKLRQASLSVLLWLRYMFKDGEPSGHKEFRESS
Description: (§1) Tastants (Sigma-Aldrich, Taufkirchen, Germany) were dissolved and administered in the following (in mM): 130 NaCl, 5 KCl, 10 HEPES, 2 CaCl2, and 10 mM glucose, pH7.4. Data were collected from 1-2 independent experiments performed at least in triplicate and processed with SigmaPlot (SPSS, Chicago, Ill.). For dose-response curve calculation, the peak fluorescence responses after compound addition were corrected for and normalized to background fluorescence (ΔF/F=(F−F0)/F0), and baseline noise was subtracted.
(§2) All 25 human bitter taste receptors were challenged with 100 μM artemorin (FIG. 1) in a FLIPR calcium imaging experiment.

TAS2R10 = biological target: T2, TAS2R10 (Homo sapiens, UniProt Q9NYW0, T156M); test: FLIPR calcium imaging, HEK-293T Gα16gust44 cells expressing TAS2R10; assay type: cell-based
T2 construct: expressed in transfected cells; host or cells: HEK-293T cells stably expressing the chimeric G-protein subunit Gα16gust44
T2 sequence (Q9NYW0 1-307 T156M): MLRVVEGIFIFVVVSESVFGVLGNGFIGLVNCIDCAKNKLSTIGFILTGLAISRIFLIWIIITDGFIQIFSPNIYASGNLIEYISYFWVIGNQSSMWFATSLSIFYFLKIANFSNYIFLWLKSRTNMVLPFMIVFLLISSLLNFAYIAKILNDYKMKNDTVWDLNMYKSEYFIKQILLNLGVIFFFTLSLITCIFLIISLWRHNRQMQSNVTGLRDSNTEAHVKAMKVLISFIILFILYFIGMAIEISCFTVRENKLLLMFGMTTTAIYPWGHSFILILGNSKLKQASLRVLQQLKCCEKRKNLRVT
Description: as §1, §2

TAS2R4 = biological target: T3, TAS2R4 (Homo sapiens, UniProt Q9NYW5); test: FLIPR calcium imaging, HEK-293T Gα16gust44 cells expressing TAS2R4; assay type: cell-based
T3 construct: expressed in transfected cells; host or cells: HEK-293T cells stably expressing the chimeric G-protein subunit Gα16gust44
T3 sequence (Q9NYW5 1-299): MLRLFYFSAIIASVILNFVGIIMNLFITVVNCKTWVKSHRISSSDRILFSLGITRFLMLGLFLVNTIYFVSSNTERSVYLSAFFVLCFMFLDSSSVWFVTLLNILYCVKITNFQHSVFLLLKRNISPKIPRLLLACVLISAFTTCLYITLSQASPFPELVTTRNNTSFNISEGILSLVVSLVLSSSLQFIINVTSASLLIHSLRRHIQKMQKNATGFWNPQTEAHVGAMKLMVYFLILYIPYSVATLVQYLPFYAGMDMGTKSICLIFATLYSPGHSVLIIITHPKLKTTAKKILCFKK
Description: as §1, §2

mock-transfected cells = conditions: 1 mM PROP
Description: as §1, §2

[1] = challenged with 100 μM artemorin, FIG. 2

## C=C1C(=O)O[C@@H]2[C@H]3C(C)=CC[C@@]34O[C@@]4(C)CC[C@@H]12 [Arglabin]
TAS2R14
  molar range at which TAS2R14 responded to the bitter substance: 0.1 mM
TAS2R10; calcium response, transfected HEK-293T Gα16gust44 cells, FLIPR
  molar range at which TAS2R10 responded to the bitter substance: 0.1 mM

## CCNC(=S)NCC [N,N′-Diethylthiourea]
TAS2R14
  molar range at which TAS2R14 responded to the bitter substance: 10 mM

## C=C1CC[C@H]2C(=C)C(=O)O[C@@H]2/C=C(\C)CC[C@H]1O [artemorin]
TAS2R4; [1]
  receptor response in FLIPR calcium imaging experiment (TAS2R4): responded to artemorin in a dose-dependent manner
TAS2R14; [1]
  receptor response in FLIPR calcium imaging experiment (TAS2R14): responded to artemorin in a dose-dependent manner
TAS2R10; [1]
  receptor response in FLIPR calcium imaging experiment (TAS2R10): responded to artemorin in a dose-dependent manner

## CCCc1cc(=O)[nH]c(=S)[nH]1 [propylthiouracil]
TAS2R4; result in words
  calcium responses in TAS2R4-expressing cells: very small (somewhat questionable) and no dose-dependency can be shown
mock-transfected cells
  signals of mock-transfected cells: elicits endogenous signals of mock-transfected cells
